# From patent US20260344665A1, “FUNGICIDAL COMPOUND” (priority 2022, published 2026)
# Where two headings read alike, the source gives them in different places.
# Legend:
# [1] = system: Blumeria graminis f.sp. tritici; assay: Powdery mildew assay in wheat (haustoria formation); format: in vivo
# Zymoseptoria tritici = assay: Leaf painting assay in wheat seedling, Zymoseptoria tritici preventive; format: in vivo
# Description: Wheat seedlings of the variety Riband (for Zymoseptoria tritici trials) or variety Arina (for Puccinia recondite trials) were grown in the glasshouse until 14d after seeding. At this time, such seedlings usually have a first leaf fully emerged (designated L1), a second leaf fully emerged (L2) and a third leaf (L3) that is partially emerged and in the process of development. Using a permanent pen, two dots were applied on the second leaf such as to generate three segments of roughly equal size: Segment A (at the base), segment B (middle part) and segment C (tip of the leaf). A stock solution of the compound of Formula (I) was produced in water and of benzovindiflupyr in DMSO at a concentration of 10,000 ppm. […] The diluted compound was applied to the middle segment of L2 using a conventional cotton stick; the cotton stick was soaked in the diluted compound and rubbed several times on the adaxial leaf surface between the two marks. One day later, the complete plant was inoculated with a fungal spore suspension using a paint brush. The spore suspension was applied until before run-off.
# For infection with Zymoseptoria tritici (preventive), the test plants were inoculated by spraying a spore suspension on them one day after application (1.5 Mio spores per ml in water supplemented with 0.01% Tween20). After an incubation period of 4 days at 22 °C/21 °C (day/night) and 95% rh, the inoculated test plants were kept at 22 °C/21 °C (day/night) and 70% rh in a greenhouse.
# The three segments of the leaf were evaluated individually.
# Puccinia recondita = assay: Mixture with malonomicin, leaf disc, Puccinia recondita curative; format: in vivo; details: foliar, 192 h, read-out: control of fungal growth
# Text: An additional ingredient having pesticidal activity, for instance fungicidal activity may result in an unexpected synergistic activity. […] The action to be expected E for a given active ingredient combination obeys the so-called COLBY formula and can be calculated as follows (COLBY, S. R. “Calculating synergistic and antagonistic responses of herbicide combination”. Weeds, Vol. 15, pages 20-22; 1967): • ppm=milligrams of active ingredient (=a.i.) per liter of spray mixture • X=% action by active ingredient A) using p ppm of active ingredient • Y=% action by active ingredient B) using q ppm of active ingredient.
# According to COLBY, the expected (additive) action of active ingredients A)+B) using p+q ppm of active ingredient is:
# In mathematical terms, synergism corresponds to a positive value for the difference of (O-E). In the case of purely complementary addition of activities (expected activity), said difference (O-E) is zero. A negative value of said difference (O-E) signals a loss of activity compared to the expected activity.
# A stock solution for oligosaccharide compound according to the present invention was produced in water plus 0.025% Tween®20. Malonomicin was produced according to Law et al, 2018 (Nature Catalys is | VOL 1 | DECEMBER 2018 | 977-984). A stock solution of malonomicin was produced in water plus 0.025% Tween®20.
# Assays to test efficacy of mixtures of the compound of Formula (I) in combination with malonomicin on the control of fungal pathogens in a leaf disc assay were designed for two 24 well plates.
# Table 8 and 9: Outline of 24 well testplate (1) and testplate (2) including concentration of compounds sprayed per well. The upper number in the cell indicates the oligosaccharide compound of the present invention concentration (ppm), the lower number malonomicin concentration (ppm). Column (1) holds a dilution series of compound of Formula (I), row (2-D) hold a dilution series of malonomicin. Well 2-D-(1) represents an untreated check. This design was applied for tests including Puccinia recondita (EPPO code: PUCCRE) with preventive and curative spray timing.
# A first set of master plates with 1× concentrated spray solution of the compound of Formula (I) stock diluted in water with concentrations according to Table 8, Table 9, Table 11 and Table 12, respectively, was prepared. Each well contained 0.025% Tween®20. Accordingly, a second set of master plates with 1× concentrated malonomicin stock diluted in water was prepared. Each well of the second set contained 0.025% Tween®20. Leaf segments placed on agar in 24 well plates are sprayed with 8 ul of solution from the master plate containing compound of Formula (I) and the leaf segments were let to dry, followed 2 hours later by 8 ul of solution from the master plate containing malonomicin. After second sprays have dried, leaf segments are infected with fungal spores to obtain a preventive application timing. Alternatively, leaf segments infected one day before spray of the compounds are used, resulting in a curative spray timing. In addition, several plates were produced where leaf segments were sprayed 2× in absence of test compound (with only Tween®20), representing the untreated check samples. For each leaf segment percent leaf coverage of disease symptoms was assessed. Percent leaf coverage reduction relative to the untreated check was calculated. Efficacy of the mixtures was tested in duplicate and on different fungal species. Reported efficacy values are the average of two replicate results.
# Puccinia recondita (EPPO Code: PUCCRE) with Curative Spray Timing.
# Wheat (cultivar Kanzler) leaf segments are placed on agar in multiwell plates (24-well format). The leaf disks are then inoculated with a spore suspension of the fungus. One day after inoculation the test solution is sprayed (8 ul per well). After appropriate incubation the activity of a compound is assessed 8 dpi (days after inoculation) as curative fungicidal activity
# Magnaporthe grisea = format: in vivo, Magnaporthe grisea (Pyricularia oryzae); details: rice, preventive
smiles,measurement,setting,value
CC(=O)NC1C(OCC(OC2OC(CO)C(O)C(O)C2O)C2OC(OC3C(O)C(CO)OC(OC4(CO)OC(C(O)CO)C(O)C4OC4OC(CO)C(O)C(O)C4O)C3O)C(O)C(O)C2OC2OC(C(O)CO)C(O)C(O)C2OC2OCC(OC(N)=O)C(O)C2O)OC(CO)C(O)C1O (centres unmarked) [compound of Formula (I)],minimal effective concentration,"[1]; Blumeria graminis, 48 h, pre-treated wheat, read-out: concentration at which effect on haustoria formation is observed",≥ 25 µM
same,activity at 1 µM,"[1]; Blumeria graminis, 1 μM, 48 h after infecting, read-out: haustoria formation (% relative to control)",106%
same,activity at 25 µM,"[1]; Blumeria graminis, 25 μM, 48 h after infecting, read-out: haustoria formation (% relative to control)",59.1%
same,activity at 100 µM,"[1]; Blumeria graminis, 100 μM, 48 h after infecting, read-out: haustoria formation (% relative to control)",66.4%
same,reduction of haustoria formation,[1]; pre-treated wheat,reduction of haustoria formation
same,% reduction fungal growth,"Zymoseptoria tritici; Experiment 1, 200.00 ppm, base segment, preventive",24%
same,% reduction fungal growth,"Zymoseptoria tritici; Experiment 1, 200.00 ppm, middle segment (treated), preventive",93%
same,% reduction fungal growth,"Zymoseptoria tritici; Experiment 1, 200.00 ppm, tip segment, preventive",99%
same,% reduction fungal growth,"Zymoseptoria tritici; Experiment 3, 400.00 ppm, base segment, preventive",1%
same,% reduction fungal growth,"Zymoseptoria tritici; Experiment 3, 400.00 ppm, middle segment (treated), preventive",96%
same,% reduction fungal growth,"Zymoseptoria tritici; Experiment 3, 400.00 ppm, tip segment, preventive",100%
same,activity against growth of fungus,"Zymoseptoria tritici; leaf painting, preventive",active against growth
same,control on treated and above treated area,Zymoseptoria tritici; middle segment treated,provided control on the treated area (middle segment) as well as the above treated area (tip)
same,inhibition of growth at 3.13 µg/mL,Puccinia recondita; Formula (I) 3.13 ppm solo,0%
same,inhibition of growth at 6.25 µg/mL,Puccinia recondita; Formula (I) 6.25 ppm solo,0%
same,inhibition of growth at 12.5 µg/mL,Puccinia recondita; Formula (I) 12.5 ppm solo,10%
same,inhibition of growth at 25 µg/mL,Puccinia recondita; Formula (I) 25 ppm solo,10%
same,inhibition of growth at 50 µg/mL,Puccinia recondita; Formula (I) 50 ppm solo,20%
same,inhibition of growth at 100 µg/mL,Puccinia recondita; Formula (I) 100 ppm solo,70%
same,inhibition of growth at 200 µg/mL,Puccinia recondita; Formula (I) 200 ppm solo,80%
same,% reduction fungal growth,Magnaporthe grisea; 0.80 ppm,0%
same,% reduction fungal growth,Magnaporthe grisea; 2.50 ppm,0%
same,% reduction fungal growth,Magnaporthe grisea; 7.40 ppm,0%
same,% reduction fungal growth,Magnaporthe grisea; 22.00 ppm,60%
same,% reduction fungal growth,Magnaporthe grisea; 67.00 ppm,70%
same,% reduction fungal growth,Magnaporthe grisea; 200.00 ppm,100%
